Tests used:
Format in all cases: biochemical
[1] = biological target: T1, Arabidopsis HPPD (SEQ ID: 53) (Arabidopsis thaliana, UniProt P93836); assay: HPPD activity assay, Arabidopsis wild-type HPPD; design: key to Normalized tolerance index TI: tolerance index relative to Arabidopsis wild-type HPPD (= 1); details: for Normalized tolerance index TI: normalized on Arabidopsis wild-type HPPD; for tolerance index TI: not normalized
T1 construct: His6 (N); made in house; host or cells: E. coli BL21 (DE3)
T1 sequence (P93836 1-445): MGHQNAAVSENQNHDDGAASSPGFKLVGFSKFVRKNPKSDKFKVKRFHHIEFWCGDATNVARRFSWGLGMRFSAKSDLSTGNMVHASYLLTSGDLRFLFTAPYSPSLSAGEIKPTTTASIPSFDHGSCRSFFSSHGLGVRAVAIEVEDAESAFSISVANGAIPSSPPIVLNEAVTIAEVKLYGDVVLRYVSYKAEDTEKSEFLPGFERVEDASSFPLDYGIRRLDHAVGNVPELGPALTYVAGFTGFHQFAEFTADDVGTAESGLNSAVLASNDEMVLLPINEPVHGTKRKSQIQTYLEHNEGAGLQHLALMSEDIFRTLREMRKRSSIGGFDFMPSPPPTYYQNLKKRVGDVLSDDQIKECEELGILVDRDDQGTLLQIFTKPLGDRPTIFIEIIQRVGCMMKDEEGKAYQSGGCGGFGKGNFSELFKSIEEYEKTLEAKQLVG
Experimental: (§1) HPPD produces homogentisic acid and CO2 from 4-hydroxyphenylpyruvate (4-HPP) and O2. The activity assay for HPPD is based on the analysis of homogentisic acid by reversed phase HPLC.
(§2) The assay mixture can contain 150 mM potassium phosphate buffer pH 7.0, 50 mM L-ascorbic acid, 1 μM FeSO4 and 7 μg of purified enzyme in a total volume of 1 ml.
(§3) Inhibitors are dissolved in DMSO (dimethylsulfoxide) to a concentration of 20 mM or 0.5 mM, respectively. From this stock solution serial five-fold dilutions are prepared in DMSO, which are used in the assay. The respective inhibitor solution accounts for 1% of the assay volume. […] After a preincubation of 30 min the reaction is started by adding 4-HPP to a final concentration of 0.1 mM. The reaction is allowed to proceed for 120 min at room temperature. The reaction is stopped by addition of 100 μl of 4.5 M phosphoric acid.
(§4) Activities are normalized by setting the uninhibited enzyme activity to 100%. IC50 values are calculated using non-linear regression.
(§5) The assay mixture can contain 150 mM potassium phosphate buffer pH 7.0, 50 mM L-ascorbic acid, 100 μM Catalase (Sigma-Aldrich), 1 μM FeSO4 and 0.2 units of purified HPPD enzyme in a total volume of 505 μl. 1 unit is defined as the amount of enzyme that is required to produce 1 nmol of HGA per minute at 20° C.
(§6) Inhibitors are dissolved in DMSO (dimethylsulfoxide) to a concentration of 0.5 mM. From this stock solution serial five-fold dilutions are prepared in DMSO, which are used in the assay. The respective inhibitor solution accounts for 1% of the assay volume. […] Activities are normalized by setting the uninhibited enzyme activity to 100%. IC50 values are calculated using non-linear regression.
Using methods which are described in the above examples or well known in the art, purified, recombinant wildtype HPPD enzymes are characterized with respect to their kinetic properties and sensitivity towards HPPD inhibiting herbicides. Apparent michaelis constants (Km) and maximal reaction velocities (Vmax) are calculated by non-linear regression with the software GraphPad Prism 5 (GraphPad Software, La Jolla, USA) using a substrate inhibition model.
Field performance of the HPPD enzyme, which is used as a herbicide tolerance trait, may depend not only on its lack of sensitivity towards HPPD inhibiting herbicides but also on its activity. To assess the potential performance of a herbicide tolerance trait a tolerance index (TI) is calculated using the following formula: […]
Easy comparison and ranking of each trait is enabled by normalizing tolerance indexes on Arabidopsis wild-type HPPD.

[2] = test system: Picrophilus HPPD; assay: HPPD activity assay, Picrophilus HPPD; details: normalized on Arabidopsis wild-type HPPD
Experimental: as §1, §2
Inhibitors are dissolved in DMSO (dimethylsulfoxide) to a concentration of 20 mM or 0.5 mM, respectively. From this stock solution serial five-fold dilutions are prepared in DMSO, which are used in the assay. The respective inhibitor solution accounts for 1% of the assay volume. Thus, final inhibitor concentrations range from 200 μM to 2.5 nM or from 5 μM to 63 pM, respectively. After a preincubation of 30 min the reaction is started by adding 4-HPP to a final concentration of 0.1 mM. The reaction is allowed to proceed for 120 min at room temperature. The reaction is stopped by addition of 100 μl of 4.5 M phosphoric acid.
as §4
The assay mixture can contain 150 mM potassium phosphate buffer pH 7.0, 50 mM L-ascorbic acid, 100 μM Catalase (Sigma-Aldrich), 1 μM FeSO4 and 0.2 units of purified HPPD enzyme in a total volume of 505 μl. […]
(§7) Inhibitors are dissolved in DMSO (dimethylsulfoxide) to a concentration of 0.5 mM. […] IC50 values are calculated using non-linear regression.
Using methods which are described in the above examples or well known in the art, purified, recombinant wildtype HPPD enzymes are characterized with respect to their kinetic properties and sensitivity towards HPPD inhibiting herbicides. Apparent michaelis constants (Km) and maximal reaction velocities (Vmax) are calculated by non-linear regression with the software GraphPad Prism 5 (GraphPad Software, La Jolla, USA) using a substrate inhibition model. […] Weighted means (by standard error) of Km and […] values are calculated from at least three independent experiments. […]

[3] = biological target: T2, Hordeum HPPD variant L334E (Hordeum vulgare, UniProt O48604, A164G/L334E/R146V/R147D/R148G); assay: HPPD activity assay, Hordeum HPPD mutant L334E; details: normalized on Hordeum wild-type HPPD
T2 construct: His (N); made in house; host or cells: E. coli BL21 (DE3)
T2 sequence (O48604 whole entry R146V/R147D/R148G/A164G/L334E): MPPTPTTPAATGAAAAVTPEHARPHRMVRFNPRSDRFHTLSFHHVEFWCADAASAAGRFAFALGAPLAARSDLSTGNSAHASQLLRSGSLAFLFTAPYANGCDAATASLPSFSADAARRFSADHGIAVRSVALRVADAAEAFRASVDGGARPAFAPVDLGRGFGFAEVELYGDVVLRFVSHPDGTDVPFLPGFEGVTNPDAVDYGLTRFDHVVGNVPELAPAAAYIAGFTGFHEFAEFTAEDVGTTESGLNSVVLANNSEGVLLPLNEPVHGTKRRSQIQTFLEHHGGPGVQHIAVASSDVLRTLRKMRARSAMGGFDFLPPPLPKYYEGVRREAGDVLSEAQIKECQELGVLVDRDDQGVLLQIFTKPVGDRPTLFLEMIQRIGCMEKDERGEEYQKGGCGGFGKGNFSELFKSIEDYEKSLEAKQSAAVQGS
Experimental: as §1, §2, §3, §4, §5, §6
Purified, mutant HPPD enzymes are obtained by the methods described above. Dose response and kinetic measurements are carried out using the described HPPD activity assay. Apparent michaelis constants (Km) and maximal reaction velocities (Vmax) are calculated by non-linear regression with the software GraphPad Prism 5 (GraphPad Software, La Jolla, USA) using a substrate inhibition model.
(§8) Field performance of the optimized HPPD enzyme, which is used as a herbicide tolerance trait may depend not only on its lack of sensitivity towards HPPD inhibiting herbicides but also on its activity. To assess the potential performance of a herbicide tolerance trait a tolerance index (TI) is calculated using the following formula: […]
Easy comparison and ranking of each trait is enabled by normalizing tolerance indexes on Arabidopsis or Hordeum wild-type HPPD.

[4] = biological target: T3, Hordeum HPPD variant L320H (Hordeum vulgare, UniProt O48604, A164G/L320H/R146V/R147D/R148G); assay: HPPD activity assay, Hordeum HPPD mutant L320H; details: normalized on Hordeum wild-type HPPD
T3 construct: His (N); made in house; host or cells: E. coli BL21 (DE3)
T3 sequence (O48604 whole entry R146V/R147D/R148G/A164G/L320H): as the sequence (O48604 whole entry R146V/R147D/R148G/A164G/L334E) above, with L320H, E334L counted along it
Experimental: as §1, §2, §3, §4, §5, §7
Purified, mutant HPPD enzymes are obtained by the methods described above. […] Apparent michaelis constants (Km) and maximal reaction velocities (Vmax) are calculated by non-linear regression with the software GraphPad Prism 5 (GraphPad Software, La Jolla, USA) using a substrate inhibition model.
as §8

[5] = Arabidopsis HPPD Wildtype, Table 15

Row | SMILES | Ki [1] | Normalized tolerance index TI [1, 5] | Normalized tolerance index TI ([1]; Arabidopsis HPPD, Table 12) | tolerance index TI ([1]; Arabidopsis HPPD) | Normalized tolerance index TI [2] | Normalized tolerance index TI [3] | Normalized tolerance index TI [4]
1 | CC1=NOC(c2c(Cl)ccc(C3=C(O)c4ncccc4C(C)(C)S3(=O)=O)c2Cl)C1 (stereo not shown) [Inhibitor 1, 7-[2,4-dichloro-3-(3-methyl-4,5-dihydroisoxazol-5-yl)phenyl]-5,5-dimethyl-6,6-dioxo-thiopyrano[4,3-b]pyridin-8-ol] | 4.1 nM | 1 | 1 | 4E−3 | 283 | 1.5 | 8.5
2 | CC1(C)c2cccnc2C(O)=C(c2ccc(Cl)nc2Cl)S1(=O)=O [Inhibitor 2, 7-(2,6-dichloro-3-pyridyl)-5,5-dimethyl-6,6-dioxo-thiopyrano[4,3-b]pyridin-8-ol] | 4.2 nM | 1 | 1 | 4E−3 | 86.4 | 1.4 | 2.7
3 | COCCOCc1c(Cl)ccc(C2=C(O)c3ncccc3C(C)(C)S2(=O)=O)c1Cl [Inhibitor 3, 7-[2,4-dichloro-3-(2-methoxyethoxymethyl)phenyl]-5,5-dimethyl-6,6-dioxo-thiopyrano[4,3-b]pyridin-8-ol] |  | 1 | 1 |  | 17.2 | 1.5 | 7.4

From patent US20140357487A1, “PLANTS HAVING INCREASED TOLERANCE TO HERBICIDES” (BASF SE, priority 2011, published 2014)
